Laboratory results: PubChem BioAssay AID1919005 (Molecular Pharmacology Branch, DTP, NCI, 2023)
Where “and” joins values, the source holds several entries; their conditions need not be identical. Identical values can stand only once.

Test system: 855422-203-R-J1-PDC complex spheroid growth
Assay: Anticancer human tumor 855422-203-R-J1-PDC patient-derived bladder carcinoma cell line growth inhibition [AhR]
Conditions: for viability, T/C: stronger effect = lower value
Outline: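 Spheroids combined tumor cells with HUVEC endothelial cells and human MSCs as stroma. AhR antagonists were paired with standard or investigational drugs, each dosed in half-log steps down from near clinical Cmax, or from 10 microM where Cmax was unknown.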

[1] = curve of first compound, second compound 0.1 µM
[2] = curve of first compound, second compound 0.316 µM
[3] = curve of first compound, second compound 1 µM
[4] = curve of first compound, second compound 3.16 µM
[5] = curve of first compound, second compound 10 µM
[6] = second compound 0.1 µM, first compound 0.0316 µM
[7] = second compound 0.1 µM, first compound 0.1 µM
[8] = second compound 0.1 µM, first compound 0.316 µM
[9] = second compound 0.1 µM, first compound 1 µM
[10] = second compound 0.1 µM, first compound 3.16 µM
[11] = second compound 0.1 µM, first compound 10 µM
[12] = second compound 0.316 µM, first compound 0.0316 µM
[13] = second compound 0.316 µM, first compound 0.1 µM
[14] = second compound 0.316 µM, first compound 0.316 µM
[15] = second compound 0.316 µM, first compound 1 µM
[16] = second compound 0.316 µM, first compound 3.16 µM
[17] = second compound 0.316 µM, first compound 10 µM
[18] = second compound 1 µM, first compound 0.0316 µM
[19] = second compound 1 µM, first compound 0.1 µM
[20] = second compound 1 µM, first compound 0.316 µM
[21] = second compound 1 µM, first compound 1 µM
[22] = second compound 1 µM, first compound 3.16 µM
[23] = second compound 1 µM, first compound 10 µM
[24] = second compound 3.16 µM, first compound 0.0316 µM
[25] = second compound 3.16 µM, first compound 0.1 µM
[26] = second compound 3.16 µM, first compound 0.316 µM
[27] = second compound 3.16 µM, first compound 1 µM
[28] = second compound 3.16 µM, first compound 3.16 µM
[29] = second compound 3.16 µM, first compound 10 µM
[30] = second compound 10 µM, first compound 0.0316 µM
[31] = second compound 10 µM, first compound 0.1 µM
[32] = second compound 10 µM, first compound 0.316 µM
[33] = second compound 10 µM, first compound 1 µM
[34] = second compound 10 µM, first compound 3.16 µM
[35] = second compound 10 µM, first compound 10 µM
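Note: spheroids exposed to agents for seven days before readout.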
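Throughout, for viability, T/C: percent of DMSO vehicle control luminescence viability.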

## COc1cc(C2c3cc4c(cc3C(OC3OC5COC(C)OC5C(O)C3O)C3COC(=O)C23)OCO4)cc(OC)c1O (configuration not stated) + CC(CO)NC(=O)c1cc(-c2ccc(Cl)cc2)nn(-c2cnn(C)c2)c1=O
[1]
  IC50: 551 nM
[2]
  IC50: 573 nM
[3]
  IC50: 498 nM
[4]
  IC50: 327 nM
[5]
  IC50: 251 nM
[6]
  viability, T/C: 104%
[7]
  viability, T/C: 93.5%
[8]
  viability, T/C: 72.9%
[9]
  viability, T/C: 25.6%
[10]
  viability, T/C: 12.7%
[11]
  viability, T/C: 6.98%
[12]
  viability, T/C: 94.2%
[13]
  viability, T/C: 96%
[14]
  viability, T/C: 75.6%
[15]
  viability, T/C: 25.4%
[16]
  viability, T/C: 12.1%
[17]
  viability, T/C: 5.1%
[18]
  viability, T/C: 98.5%
[19]
  viability, T/C: 103%
[20]
  viability, T/C: 64.3%
[21]
  viability, T/C: 25.6%
[22]
  viability, T/C: 11.1%
[23]
  viability, T/C: 4.66%
[24]
  viability, T/C: 89.5%
[25]
  viability, T/C: 91.8%
[26]
  viability, T/C: 48.2%
[27]
  viability, T/C: 19.4%
[28]
  viability, T/C: 9.59%
[29]
  viability, T/C: 3.77%
[30]
  viability, T/C: 96.2%
[31]
  viability, T/C: 82.3%
[32]
  viability, T/C: 37.1%
[33]
  viability, T/C: 24.3%
[34]
  viability, T/C: 8.67%
[35]
  viability, T/C: 4.32%

## COc1ccc([C@@H](O)c2cc(-c3ncnc4cc(N5CCOCC5)ccc34)c(F)cc2Cl)nn1 + Cc1cncc(-c2nc(NCCc3c[nH]c4ccccc34)c3ncn(C(C)C)c3n2)c1
[1]
  IC50: > 10000 nM
[2]
  IC50: 9440 nM
[3]
  IC50: 6090 nM
[4]
  IC50: 2410 nM
[5]
  IC50: < 31.6 nM
[6]
  viability, T/C: 101%
[7]
  viability, T/C: 90.6%
[8]
  viability, T/C: 93.7%
[9]
  viability, T/C: 83.8%
[10]
  viability, T/C: 76.7%
[11]
  viability, T/C: 50.9%
[12]
  viability, T/C: 97.1%
[13]
  viability, T/C: 88.6%
[14]
  viability, T/C: 77.2%
[15]
  viability, T/C: 86.8%
[16]
  viability, T/C: 74.5%
[17]
  viability, T/C: 47.8%
[18]
  viability, T/C: 90.5%
[19]
  viability, T/C: 94.6%
[20]
  viability, T/C: 79.9%
[21]
  viability, T/C: 74.5%
[22]
  viability, T/C: 69.1%
[23]
  viability, T/C: 37.6%
[24]
  viability, T/C: 79.5%
[25]
  viability, T/C: 85.6%
[26]
  viability, T/C: 67.2%
[27]
  viability, T/C: 54.7%
[28]
  viability, T/C: 52.6%
[29]
  viability, T/C: 27.9%
[30]
  viability, T/C: 6.06%
[31]
  viability, T/C: 3.37%
[32]
  viability, T/C: 1.79%
[33]
  viability, T/C: 0.4%
[34]
  viability, T/C: 6.5%
[35]
  viability, T/C: 9.38%

## O=C(C=Cn1cnc(-c2cc(C(F)(F)F)cc(C(F)(F)F)c2)n1)NNc1cnccn1 + Cc1ccccc1N=Nc1ccc(NC(=O)c2ccnn2C)c(C)c1
[1]
  IC50: > 3000 nM
[2]
  IC50: > 3000 nM
[3]
  IC50: > 3000 nM
[4]
  IC50: 706 nM
[5]
  IC50: 726 nM
Second compound 0.1 µM, first compound 0.00949 µM
  viability, T/C: 108%
Second compound 0.1 µM, first compound 0.03 µM
  viability, T/C: 113%
Second compound 0.1 µM, first compound 0.0949 µM
  viability, T/C: 143%
Second compound 0.1 µM, first compound 0.3 µM
  viability, T/C: 93.1%
Second compound 0.1 µM, first compound 0.949 µM
  viability, T/C: 53.9%
Second compound 0.1 µM, first compound 3 µM
  viability, T/C: 50.1%
Second compound 0.316 µM, first compound 0.00949 µM
  viability, T/C: 109%
Second compound 0.316 µM, first compound 0.03 µM
  viability, T/C: 118%
Second compound 0.316 µM, first compound 0.0949 µM
  viability, T/C: 151%
Second compound 0.316 µM, first compound 0.3 µM
  viability, T/C: 83.7%
Second compound 0.316 µM, first compound 0.949 µM
  viability, T/C: 57.6%
Second compound 0.316 µM, first compound 3 µM
  viability, T/C: 48%
Second compound 1 µM, first compound 0.00949 µM
  viability, T/C: 109%
Second compound 1 µM, first compound 0.03 µM
  viability, T/C: 136%
Second compound 1 µM, first compound 0.0949 µM
  viability, T/C: 179%
Second compound 1 µM, first compound 0.3 µM
  viability, T/C: 78.5%
Second compound 1 µM, first compound 0.949 µM
  viability, T/C: 54.2%
Second compound 1 µM, first compound 3 µM
  viability, T/C: 48%
Second compound 3.16 µM, first compound 0.00949 µM
  viability, T/C: 111%
Second compound 3.16 µM, first compound 0.03 µM
  viability, T/C: 107%
Second compound 3.16 µM, first compound 0.0949 µM
  viability, T/C: 154%
Second compound 3.16 µM, first compound 0.3 µM
  viability, T/C: 69.8%
Second compound 3.16 µM, first compound 0.949 µM
  viability, T/C: 48.5%
Second compound 3.16 µM, first compound 3 µM
  viability, T/C: 37.8%
Second compound 10 µM, first compound 0.00949 µM
  viability, T/C: 85.8%
Second compound 10 µM, first compound 0.03 µM
  viability, T/C: 101%
Second compound 10 µM, first compound 0.0949 µM
  viability, T/C: 112%
Second compound 10 µM, first compound 0.3 µM
  viability, T/C: 58.2%
Second compound 10 µM, first compound 0.949 µM
  viability, T/C: 49.8%
Second compound 10 µM, first compound 3 µM
  viability, T/C: 45.4%

## CC1(C)CCC(CN2CCN(c3ccc(C(=O)NS(=O)(=O)c4ccc(NCC5CCOCC5)c([N+](=O)[O-])c4)c(Oc4cnc5[nH]ccc5c4)c3)CC2)=C(c2ccc(Cl)cc2)C1
Compound 0.0316 µM
  viability, T/C: 98.4% and 107% and 103%
Compound 0.1 µM
  viability, T/C: 95.8% and 106% and 98.7%
Compound 0.316 µM
  viability, T/C: 108% and 103% (2×)
Compound 1 µM
  viability, T/C: 97.6% and 116% and 104%
Compound 3.16 µM
  viability, T/C: 108% and 118% and 100%
Compound 10 µM
  viability, T/C: 13.2% and 22.8% and 8.45%
Curve of compound
  IC50: 6190 nM and 6990 nM and 5930 nM

## Nc1ccccc1NC(=O)c1ccc(CNC(=O)OCc2cccnc2)cc1 + Cc1cncc(-c2nc(NCCc3c[nH]c4ccccc34)c3ncn(C(C)C)c3n2)c1
[1]
  IC50: 2660 nM
[2]
  IC50: 2310 nM
[3]
  IC50: 2010 nM
[4]
  IC50: 475 nM
[5]
  IC50: < 31.6 nM
[6]
  viability, T/C: 88.7%
[7]
  viability, T/C: 81.7%
[8]
  viability, T/C: 76.4%
[9]
  viability, T/C: 74.3%
[10]
  viability, T/C: 45.2%
[11]
  viability, T/C: 5.46%
[12]
  viability, T/C: 86.9%
[13]
  viability, T/C: 83.7%
[14]
  viability, T/C: 69.5%
[15]
  viability, T/C: 76.4%
[16]
  viability, T/C: 40.7%
[17]
  viability, T/C: 5.76%
[18]
  viability, T/C: 88.7%
[19]
  viability, T/C: 87.9%
[20]
  viability, T/C: 78.2%
[21]
  viability, T/C: 73.9%
[22]
  viability, T/C: 35.4%
[23]
  viability, T/C: 4.53%
[24]
  viability, T/C: 82.2%
[25]
  viability, T/C: 73.8%
[26]
  viability, T/C: 63.9%
[27]
  viability, T/C: 26.4%
[28]
  viability, T/C: 22.1%
[29]
  viability, T/C: 5.42%
[30]
  viability, T/C: 7.49%
[31]
  viability, T/C: 5.93%
[32]
  viability, T/C: 0.88%
[33]
  viability, T/C: 0.3%
[34]
  viability, T/C: 0.17%
[35]
  viability, T/C: 0.17%

## Nc1ccccc1NC(=O)c1ccc(CNC(=O)OCc2cccnc2)cc1 + CC(CO)NC(=O)c1cc(-c2ccc(Cl)cc2)nn(-c2cnn(C)c2)c1=O
[1]
  IC50: 3890 nM
[2]
  IC50: 4060 nM
[3]
  IC50: 4130 nM
[4]
  IC50: 2870 nM
[5]
  IC50: 3100 nM
[6]
  viability, T/C: 94.2%
[7]
  viability, T/C: 91.2%
[8]
  viability, T/C: 92%
[9]
  viability, T/C: 89.5%
[10]
  viability, T/C: 57.9%
[11]
  viability, T/C: 14.4%
[12]
  viability, T/C: 92.2%
[13]
  viability, T/C: 91.6%
[14]
  viability, T/C: 90.1%
[15]
  viability, T/C: 89.2%
[16]
  viability, T/C: 60.7%
[17]
  viability, T/C: 11.2%
[18]
  viability, T/C: 95.2%
[19]
  viability, T/C: 91.8%
[20]
  viability, T/C: 91.7%
[21]
  viability, T/C: 88.7%
[22]
  viability, T/C: 61.5%
[23]
  viability, T/C: 11.7%
[24]
  viability, T/C: 94%
[25]
  viability, T/C: 94.5%
[26]
  viability, T/C: 86.6%
[27]
  viability, T/C: 77.2%
[28]
  viability, T/C: 47.2%
[29]
  viability, T/C: 9.66%
[30]
  viability, T/C: 88.9%
[31]
  viability, T/C: 92.6%
[32]
  viability, T/C: 88.5%
[33]
  viability, T/C: 74.2%
[34]
  viability, T/C: 50.2%
[35]
  viability, T/C: 8.41%
